Laboratory results reported in patent US20230338344A1, “AMPK Activators and Methods of Use Thereof” (Bioverativ Therapeutics Inc., priority 2020, published 2023).

Legend:
[1] = system: human CD34+ cells; test: Fetal hemoglobin (HbF) induction in mobilized CD34+ HSPC from healthy individuals during erythroid differentiation, F-cells by flow cytometry; assay type: cell-based; conditions: healthy donors; for frequency of F-cells (HbF+): compared to vehicle (DMSO); for fetal hemoglobin induction, F-cell (HbF+) frequency in enucleated GlyA+ cells: vs DMSO or single agents
Protocol: Mobilized CD34+ Human Stem/Progenitor Cells (HSPC) from healthy individuals were cultured for 3 days in a maintenance media consisting of X-VIVO 10 (VWR), 100 U/mL penicillin-streptomycin (ThermoFisher), 2 mM L-glutamine (Fisher Scientific), 100 ng/mL Recombinant Human Stem Cell Factor (SCF), 100 ng/mL Recombinant Human Thrombopoietin (TPO) and 100 ng/mL Recombinant Human Flt-3 Ligand (Flt-3L) (all three from ThermoFisher). Cells were differentiated into erythroid cells using a three-step differentiation protocol developed by the Luc Douay group (Giarratana et al. 2005). […] On day 7, cells were transferred to step 2 media, a step 1 media without hydrocortisone and IL-3, and cultured for 3-4 days. Then cells were cultured for 8-9 days in step 3 media, a step 2 media without SCF. […] To determine the percentage of HbF-positive cells (F-cells), differentiate cells were fixed and permeabilized using a fixation kit (ThermoFisher). Cells were stained with PE-Cy7-conjugated anti-CD235 or PE-conjugated anti-CD71 antibodies. HbF levels were detected using Allophycocyanin (APC)-conjugated anti-HbF antibody (ThermoFisher). The acquisition of stained cells was performed on BD FACSCanto™ and the analysis was run using FlowJo™ Software.
Human CD34+ cells were exposed to β1-selective AMPK activators and pan-AMPK activators during the 21-day differentiation process. To assess fetal hemoglobin expression level, cells were fixed and stained with CD235a, CD71 and fetal hemoglobin antibodies for flowcytometry analysis.
After 14 days of differentiation, cells were fixed and stained with CD235a, CD71 and fetal hemoglobin antibodies for flowcytometry analysis.

[2] = molecular target: T1, AMPK (Homo sapiens, UniProt Q13131+Q9Y478); test: AMPK target engagement: Thr172 phosphorylation of alpha-AMPK (Alpha SureFire Ultra Multiplex) in CD34+ cells at day 11 of differentiation; assay type: cell-based; conditions: differentiated CD34+ cells
T1 construct: endogenous in cells; host or cells: mobilized human CD34+ HSPC from a healthy donor, day 11 of erythroid differentiation

[3] = system: AMPK; test: AMPK target engagement: Thr172 phosphorylation of alpha-AMPK (Alpha SureFire Ultra Multiplex) in undifferentiated HUDEP-2 cells; assay type: cell-based, human
Protocol: Phosphorylation of AMPK at threonine 172 (Thr172) on the α-subunit of AMPK was assessed by […] using the Alpha SureFire Ultra Multiplex p-AMPKα1/2 (Thr172)+Total AMPKα1/2 Assay Kit from Perkin Elmer as a target engagement assay. The assay kit contains antibodies, coupled with fluorophore Europium, which recognize the phospho-Thr172 epitope and a distal epitope on α-AMPK of human or mouse AMPK. The kit also contains antibodies coupled with the fluorophore Terbium to measure the total levels of AMPK. […] As to the human HUDEP-2 cells line, cells were undifferentiated during exposure to AMPK activators. According to the time course, cells were collected and lysed using RIPA buffer mixed with a phosphatase and protease inhibitors cocktail (Thermofisher). Phospho-AMPK signal was divided by total AMPK signal and the ratio was normalized to the total protein concentration. Samples protein concentrations were measured with the Pierce BSA Protein Assay (ThermoFisher).

[4] = system: human CD34+ cells from sickle cell donors; test: Fetal hemoglobin induction in CD34+ cells from patients with sickle cell disease, 14-day differentiation; assay type: cell-based; conditions: 14 days of differentiation, vs DMSO
Description: To measure the effect of AMPK activators on fetal hemoglobin induction in CD34+ cells from patients with sickle cell disease, circulating CD34+ progenitor cells were isolated from total blood obtained from a sickle cell patients, by performing a positive selection for CD34+ cells with magnetic beads (Miltenyi Biotec). Purified CD34+ cells were differentiated for 14 days. After differentiation, cells were fixed and stained with CD235a, CD71 and fetal hemoglobin antibodies for flowcytometry analysis.

[5] = system: human CD34+ cells; test: Maturation of CD34+ cells to erythrocytes: enucleation (NucRed) and markers CD71/CD235a by flow cytometry; assay type: cell-based
Protocol: During human CD34+ cells differentiation, maturation is measured by quantification of enucleation and expression of markers CD71 and CD235a, and assessed by flowcytometry. […] As well, cells were stained for markers CD235a and CD71. The acquisition was performed on BD FACSCanto™ and the analysis was done using FlowJo™ Software.

[6] = system: M1 macrophages; test: Macrophage polarization to pro-inflammatory M1 phenotype, markers by flow cytometry; assay type: cell-based, human; conditions: M-CSF polarized macrophages activated by IFN-γ or LPS for 24 h
Protocol: M1 macrophages were induced by stimulation with M-CSF (50 ng/mL) for 6 days, then activated by IFN-7 or LPS for 24 h, fixed, stained for M1 polarization markers CD38, CD64, CD86 and CD80 and acquired by flowcytometry.

[7] = system: HBG (human gamma-globin) mRNA; test: gamma-globin (HBG) mRNA in Townes mouse bone marrow by qRT-PCR; assay type: in vivo; conditions: HbAA mice bone marrow, 2 days of exposure, 100 mg/kg
Protocol: Total RNA from Townes mouse bone marrow cells was prepared using a RNeasy Mini kit (Qiagen). A quantity of 1 μg of mRNA was reverse transcribed using an iVILO Retro Transcription kit (ThermoFisher). 50 ng of the resulting cDNA was amplified by Taqman amplification in a QuantStudio thermocycler (Life Technologies) using HBG (human 7-globin primers) as gene of interest, and GAPDH (mouse gapdh primers) as a housekeeping gene (Life Technologies). The delta Ct was calculated and difference in mRNA expression was expressed as a fold-change to vehicle condition.

[8] = system: fetal hemoglobin protein; test: Human fetal hemoglobin protein in Townes mice bone marrow by flow cytometry, 15-day study; assay type: in vivo, mouse; conditions: HbSS Townes mice, 100 mg/kg PO QD 15 days, vs vehicle
Description: These mice express the genes for human HbS (homozygous HbSS), express the physiopathological phenotype of SCD and are called “HbSS-Townes mice”, whereas the control Townes mice express the genes for human HbA without the sickle mutation (homozygous HbAA), are healthy, and are called “HbAA-Townes mice” (Jackson Laboratory). These control HbAA-Townes mice were created by replacing the murine globin genes with human α-globin gene (genotype: Hba hα/hα) and linked human βA− and fetal Aγ-globins (genotype: Hbb hAγβA/hAγβA), whereas HbSS-Townes mice were created by replacing the murine adult α-globin genes with the human α-globin gene (genotype: Hba hα/hα), and the murine adult β-globin genes were replaced with human sickle βS− and fetal Aγ-globin gene fragments linked together (genotype: Hbb hAγβS/hAγβS).

[9] = system: Reactive Oxidative Species (ROS); test: Reactive Oxidative Species (ROS) in bone marrow from Townes SCD mice by flow cytometry; assay type: in vivo, mouse; conditions: 100 mg/kg PO QD 15 days, vs HbSS mice treated with vehicle
[10] = system: Nrf2-oxidative stress response pathway; test: Transcriptomic and proteomic analysis of human CD34+ cells differentiated 14 days (correlation study, IPA); assay type: cell-based; conditions: 3 healthy donors
Protocol: At day 14, RNA was extracted with Trizol reagent (Invitrogen). DNase treatment, RNA integrity and quantification, libraries generation and sequencing (Illumina HiSeq platforms HiSeq 2500) were realized according to Genewiz protocol (South Plainfield, NJ). Concerning the proteomic analysis, proteins were extracted from the same CD34+ cells used for the transcriptomic analysis. Samples preparation, proteins digestion, peptides TMT labeling and proteomic analysis were performed according to IQ Proteomics (Cambridge, MA). Bioinformatics analysis have been conducted to determine the differential expression of mRNA and proteins, and a correlation study using the differential expression from the transcriptomic analysis and the differential expression from the proteomics analysis has been run. […] SQSTM1 is known to activate Nrf2 by inhibiting Keapl, and Nrf2 pathway is known to induce HO-1 for antioxidative function in cells.

[11] = 7-day toxicological study in rats, hematological erythroid parameters; assay type: in vivo, Crl:CD (Sprague Dawley) rats; conditions: rats, 100, 300 and 1000 mg/kg/day PO QD 7 days, blood on day 8
Protocol: On day 8, blood samples were drawn and complete blood counts (CBC) were tested on a hematology analyzer to determine red blood cell counts (10^6 RBC/μL), hemoglobin (Hb, g/dL) and hematocrit (HCT, %).

T1 sequence (Q13131 whole entry): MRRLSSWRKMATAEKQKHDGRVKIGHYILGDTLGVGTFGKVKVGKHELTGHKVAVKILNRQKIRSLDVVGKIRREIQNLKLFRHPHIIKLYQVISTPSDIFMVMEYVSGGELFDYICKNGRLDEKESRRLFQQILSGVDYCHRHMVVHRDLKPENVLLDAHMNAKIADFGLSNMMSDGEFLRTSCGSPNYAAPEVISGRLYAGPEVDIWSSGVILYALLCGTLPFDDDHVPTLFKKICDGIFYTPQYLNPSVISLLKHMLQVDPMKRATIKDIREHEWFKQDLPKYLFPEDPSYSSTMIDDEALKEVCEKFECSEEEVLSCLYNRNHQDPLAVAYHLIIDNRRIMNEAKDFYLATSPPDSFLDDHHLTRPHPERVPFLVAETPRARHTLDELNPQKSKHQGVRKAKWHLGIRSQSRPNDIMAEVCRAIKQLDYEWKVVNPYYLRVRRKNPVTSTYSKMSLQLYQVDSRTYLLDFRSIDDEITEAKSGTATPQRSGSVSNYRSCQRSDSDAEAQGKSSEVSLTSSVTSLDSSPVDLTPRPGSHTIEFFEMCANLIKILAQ
T1 sequence (Q9Y478 2-270): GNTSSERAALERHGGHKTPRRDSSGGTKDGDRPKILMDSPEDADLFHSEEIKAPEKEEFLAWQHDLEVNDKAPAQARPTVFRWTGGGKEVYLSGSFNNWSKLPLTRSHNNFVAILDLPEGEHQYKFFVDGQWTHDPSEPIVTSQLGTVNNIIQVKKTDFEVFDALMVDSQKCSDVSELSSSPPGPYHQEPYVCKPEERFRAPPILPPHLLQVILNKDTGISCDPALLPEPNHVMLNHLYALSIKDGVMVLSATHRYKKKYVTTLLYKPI
T1 sequence (P54619 whole entry partner): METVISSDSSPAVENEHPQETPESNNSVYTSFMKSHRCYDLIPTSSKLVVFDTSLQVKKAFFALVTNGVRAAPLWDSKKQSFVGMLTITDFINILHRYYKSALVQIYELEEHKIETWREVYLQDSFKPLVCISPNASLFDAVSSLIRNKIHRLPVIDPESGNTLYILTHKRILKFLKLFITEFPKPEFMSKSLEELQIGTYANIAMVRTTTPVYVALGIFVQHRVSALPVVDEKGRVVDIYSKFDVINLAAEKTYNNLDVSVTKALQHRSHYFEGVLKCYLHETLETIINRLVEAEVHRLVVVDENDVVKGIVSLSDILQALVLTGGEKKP

## COc1cccc(-n2c(=O)[nH]c3cc(Cl)n(-c4ccc(-c5cccc(OC)c5O)cc4)c3c2=O)c1 [Compound 4]
[1]; 21 days of differentiation
  frequency of F-cells (HbF+): increase
[2]
  time of peak AMPK phosphorylation (Thr172, pAMPK/total AMPK): around 3 hour
[3]
  time of peak AMPK phosphorylation (Thr172, pAMPK/total AMPK): around 1 hours

## N#Cc1c(O)c2c(-c3ccc(-c4ccccc4O)cc3)csc2[nH]c1=O [Compound 2]
[1]; 21 days of differentiation
  frequency of F-cells (HbF+): increase
[3]
  time of peak AMPK phosphorylation (Thr172, pAMPK/total AMPK): around 1 hours

## NC(=O)NO [Hydroxyurea, hydroxyurea]
[1]; 14 days of differentiation
  fetal hemoglobin induction, F-cell (HbF+) frequency in enucleated GlyA+ cells: increases
[1]; 14 days of differentiation, vs Vehicle (DMSO)
  fold change in fetal hemoglobin expression compared to control: 1,5 fold
[4]
  F-cell (HbF+) frequency in enucleated GlyA+ cells: increase

## OCCOc1cc(F)c(COc2nc3nc(O[C@@H]4CO[C@H]5[C@@H]4OC[C@H]5O)[nH]c3cc2Cl)c(F)c1 [Compound 3]
[1]; 21 days of differentiation
  frequency of F-cells (HbF+): increase
[2]
  time of peak AMPK phosphorylation (Thr172, pAMPK/total AMPK): around 3 hour
[3]
  time of peak AMPK phosphorylation (Thr172, pAMPK/total AMPK): around 1 hours

## O=C(O)c1c[nH]c2cc(Cl)c(-c3ccc(C4(O)CCC4)cc3)cc12 [Compound 1]
[1]; 14 days of differentiation
  fetal hemoglobin induction, F-cell (HbF+) frequency in enucleated GlyA+ cells: increases
[1]; 21 days of differentiation
  increase of HbF+ cells compared to DMSO: about 2 fold
  frequency of F-cells (HbF+): increase
[5]; after 14 days of differentiation
  expression of differentiation markers CD71 and CD235a: unchanged
[5]; after 21 days of differentiation
  enucleation of CD34+ cells: no effect
[4]
  F-cell (HbF+) frequency in enucleated GlyA+ cells: increase
[6]
  expression of proinflammatory M1 marker CD38: decreased
  expression of proinflammatory M1 marker CD64: decreased
  expression of proinflammatory M1 marker CD80: decreased
  expression of proinflammatory M1 marker CD86: decreased
[7]
  mRNA for human HbF (human γ-globin, HBG) increase: not
[8]
  fetal hemoglobin protein expression in bone marrow: increase
[9]
  ROS in bone marrow: decrease
[10]
  Nrf2-antioxidant response element signaling pathway (IPA of proteomics data): activated
[10]; vs DMSO
  HO-1 (HMOX1) protein regulation: upregulated
  SQSTM1 protein regulation: upregulated
[11]
  hematocrit: does not reduce
  hemoglobin: does not reduce
  red blood cell counts (RBC): does not reduce
